Experimental data reported in US20230340011A1 (Asteroid Therapeutics, priority 2022, published 2023).
pIC50: −log10 of the molar value.

Target: SREBP-2 (Homo sapiens (Human), UniProt Q12772)
Assay: In vitro assay SREBP-2: PathHunter U2OS SREBP-2 Nuclear Translocation Cell Line, U18666A-stimulated
Type: cell-based
Settings: PathHunter U2OS SREBP-2 nuclear translocation cells, U18666A 10 μM, overnight (16 hours)

Compound	pIC50
Cc1ccc(O[C@@H](C)[C@H]2CC[C@H]3[C@@H]4CC=C5C[C@@H](O)CC[C@]5(C)[C@H]4CC[C@]23C)cn1 [Example 273, (1S,3aS,3bS,7S,9aR,9bS,11aS)-9a,11a-dimethyl-1-[(1S)-1-[(6-methylpyridin-3-yl)oxy]ethyl]-1H,2H,3H,3aH,3bH,4H,6H,7H,8H,9H,9aH,9bH,10H,11H,11aH-cyclopenta[a]phenanthren-7-ol]	> 6.60
C[C@H](OC(=O)N(C)C)[C@H]1CC[C@H]2[C@@H]3CC=C4C[C@@H](O)CC[C@]4(C)[C@H]3CC[C@]12C [Example 242, (1S)-1-[(1S,3aS,3bS,7S,9aR,9bS,11aS)-7-hydroxy-9a,11a-dimethyl-1H,2H,3H,3aH,3bH,4H,6H,7H,8H,9H,9aH,9bH,10H,11H,11aH-cyclopenta[a]phenanthren-1-yl]ethyl N,N-dimethylcarbamate]	6.00 to 6.60
C[C@H](CCC(=O)N1CCCC(c2ccnnc2)C1)[C@H]1CC[C@H]2[C@@H]3CC=C4C[C@@H](O)CC[C@]4(C)[C@H]3CC[C@]12C (stereo partly drawn) [Example 345, (4R)-4-((3S,8S,9S,10R,13R,14S,17R)-3-hydroxy-10,13-dimethyl-2,3,4,7,8,9,10,11,12,13,14,15,16,17-tetradecahydro-1H-cyclopenta[a]phenanthren-17-yl)-1-(3-(pyridazin-4-yl)piperidin-1-yl)pentan-1-one]	6.00 to 6.60
C[C@H](CCC(=O)N1CCOCC1)[C@H]1CC[C@H]2[C@@H]3CC=C4C[C@@H](O)CC[C@]4(C)[C@H]3CC[C@]12C [Example 7, (R)-4-((3S,8S,9S,10R,13R,14S,17R)-3-hydroxy-10,13-dimethyl-2,3,4,7,8,9,10,11,12,13,14,15,16,17-tetradecahydro-1H-cyclopenta[a]phenanthren-17-yl)-1-morpholinopentan-1-one]	> 6.60
C=CC1(O)CCN(C(=O)CC[C@@H](C)[C@H]2CC[C@H]3[C@@H]4CC=C5C[C@@H](O)CC[C@]5(C)[C@H]4CC[C@]23C)CC1 [Example 146, (R)-4-((3S,8S,9S,10R,13R,14S,17R)-3-hydroxy-10,13-dimethyl-2,3,4,7,8,9,10,11,12,13,14,15,16,17-tetradecahydro-1H-cyclopenta[a]phenanthren-17-yl)-1-(4-hydroxy-4-vinylpiperidin-1-yl) pentan-1-one]	> 6.60
Cc1ccnc(OC[C@@H](C)[C@H]2CC[C@H]3[C@@H]4CC=C5C[C@@H](O)CC[C@]5(C)[C@H]4CC[C@]23C)c1 [Example 442, (1R,3aS,3bS,7S,9aR,9bS,11aS)-9a,11a-dimethyl-1-[(2S)-1-[(4-methylpyridin-2-yl)oxy]propan-2-yl]-1H,2H,3H,3aH,3bH,4H,6H,7H,8H,9H,9aH,9bH,10H,11H,11aH-cyclopenta[a]phenanthren-7-ol]	> 6.60
Cc1cccc(OC[C@@H](C)[C@H]2CC[C@H]3[C@@H]4CC=C5C[C@@H](O)CC[C@]5(C)[C@H]4CC[C@]23C)n1 [Example 440, (1R,3aS,3bS,7S,9aR,9bS,11aS)-9a,11a-dimethyl-1-[(2S)-1-[(6-methylpyridin-2-yl)oxy]propan-2-yl]-1H,2H,3H,3aH,3bH,4H,6H,7H,8H,9H,9aH,9bH,10H,11H,11aH-cyclopenta[a]phenanthren-7-ol]	6.00 to 6.60
C[C@H](CCC(=O)N1CCC(C(NC(=O)C(C)(C)O)C(F)(F)F)CC1)[C@H]1CC[C@H]2[C@@H]3CC=C4C[C@@H](O)CC[C@]4(C)[C@H]3CC[C@]12C (stereo partly drawn) [Example 479, 2-hydroxy-2-methyl-N-(2,2,2-trifluoro-1-(1-((R)-4-((3S,8S,9S,10R,13R,14S,17R)-3-hydroxy-10,13-dimethyl-2,3,4,7,8,9,10,11,12,13,14,15,16,17-tetradecahydro-1H-cyclopenta[a]phenanthren-17-yl)pentanoyl)piperidin-4-yl)ethyl)propanamide]	> 6.60
